Results published in patent US10138207B2, “Benzomorphan analogs and the use thereof” (priority 2012, dated 2018).
Where two headings read alike, the source gives them in different places.

Columns and labels:
μ-opioid receptor [1] = biological target: T1, μ-opioid receptor (Homo sapiens, UniProt P35372); test: μ-opioid receptor radioligand dose-displacement binding assay ([3H]-diprenorphine); set-up: expressed in transfected cells; host or cells: HEK-293 or CHO
Experimental: Radioligand dose-displacement binding assays for μ-opioid receptors used 0.3 nM [^3H]-diprenorphine (Perkin Elmer, Shelton, Conn.), with […] membrane protein/well in a final volume of 500 μl binding buffer (10 mM MgCl2, 1 mM EDTA, 5% DMSO, 50 mM HEPES, pH 7.4). Reactions were carried out in the absence or presence of increasing concentrations of unlabeled naloxone. All reactions were conducted in 96-deep well polypropylene plates for 2 hr at room temperature. […] The data were analyzed using the one-site competition curve fitting functions in GraphPad PRISM™ v. 3.0 or higher (San Diego, Calif.), or an in-house function for one-site competition curve-fitting.

κ opioid receptor [2] = biological target: T2, κ opioid receptor (Homo sapiens, UniProt P41145); test: biochemical; assay type: binding; set-up: expressed in transfected cells; host or cells: HEK 293 (in-house membrane prep); conditions: HEK-293 or CHO cells
T2 sequence (P41145 whole entry): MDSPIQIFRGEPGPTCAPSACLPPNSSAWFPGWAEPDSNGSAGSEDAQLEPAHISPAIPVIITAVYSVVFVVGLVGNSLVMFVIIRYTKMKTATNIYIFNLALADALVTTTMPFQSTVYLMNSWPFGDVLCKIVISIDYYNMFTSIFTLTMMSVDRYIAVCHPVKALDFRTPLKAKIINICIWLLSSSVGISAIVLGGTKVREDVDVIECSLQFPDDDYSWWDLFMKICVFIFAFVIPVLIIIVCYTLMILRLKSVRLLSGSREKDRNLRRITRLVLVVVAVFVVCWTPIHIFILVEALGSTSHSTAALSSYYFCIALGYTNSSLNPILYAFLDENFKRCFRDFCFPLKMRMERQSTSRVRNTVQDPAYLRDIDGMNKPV

κ opioid receptor [3] = biological target: T2, κ opioid receptor; test: κ-opioid receptor [35S]GTPγS functional assay, HEK-293 or CHO cells; assay type: biochemical; set-up: expressed in transfected cells; host or cells: U-2 OS (in-house membranes); conditions: for Emax: relative to U69,593
Experimental: Membranes from recombinant HEK-293 cells, CHO or U-2 OS cells expressing the recombinant human κ opioid receptor (κ) were prepared by lysing cells in ice cold hypotonic buffer (2.5 mM MgCl2, 50 mM HEPES, pH 7.4) (10 mL/10 cm dish) followed by homogenization with a tissue grinder/Teflon pestle. Membranes from a cell line naturally expressing kappa opioid receptors can also be used. Membranes were collected by centrifugation at 30,000×g for 15 min at 4° C. and pellets were resuspended in hypotonic buffer to a final concentration of 1-3 mg/mL. Protein concentrations were determined using the BioRad protein assay reagent with bovine serum albumen as standard. Aliquots of κ receptor membranes were stored at −80° C.
Plates were incubated for 30 min at a temperature of about 25° C. with shaking.

μ-opioid receptor [4] = biological target: T1, μ-opioid receptor; test: μ-opioid receptor [35S]GTPγS functional assay, HEK-293 or CHO cells; conditions: for Emax: read-out: GTPγS μ Emax
μ-opioid receptor [5] = biological target: T1, μ-opioid receptor; test: μ-opioid receptor [35S]GTPγS functional assay, U-2 OS cells; assay type: biochemical; set-up: expressed in transfected cells; host or cells: U-2 OS; conditions: for Emax: relative to DAMGO, read-out: GTPγS μ Emax
[6] = biological target: T3, human opioid receptor-like receptor (ORL-1) (Homo sapiens, UniProt P41146); test: ORL-1 receptor radioligand binding assay ([3H]-nociceptin); conditions: HEK-293 or CHO cells; bound in μM
T3 construct: host or cells: HEK-293
T3 sequence (P41146 whole entry): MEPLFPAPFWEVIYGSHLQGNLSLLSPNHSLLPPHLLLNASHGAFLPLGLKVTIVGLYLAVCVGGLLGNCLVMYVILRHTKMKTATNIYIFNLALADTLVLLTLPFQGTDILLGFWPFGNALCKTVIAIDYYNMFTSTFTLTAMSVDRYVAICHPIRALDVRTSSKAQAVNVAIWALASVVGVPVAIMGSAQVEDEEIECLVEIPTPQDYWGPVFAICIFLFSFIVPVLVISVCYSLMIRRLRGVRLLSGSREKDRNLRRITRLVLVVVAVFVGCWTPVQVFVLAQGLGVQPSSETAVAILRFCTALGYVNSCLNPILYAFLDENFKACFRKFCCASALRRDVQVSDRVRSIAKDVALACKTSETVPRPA
Experimental: Membranes from recombinant HEK-293 cells expressing the human opioid receptor-like receptor (ORL-1) (Perkin Elmer, Shelton, Conn.) are prepared by lysing cells in ice-cold hypotonic buffer (2.5 mM MgCl2, 50 mM HEPES, pH 7.4) (10 ml/10 cm dish) followed by homogenization with a tissue grinder/Teflon pestle. Membranes are collected by centrifugation at 30,000×g for 15 min at 4° C. and pellets resuspended in hypotonic buffer to a final concentration of 1-3 mg/ml. Protein concentrations are determined using the BioRad protein assay reagent with bovine serum albumen as standard. Aliquots of the ORL-1 receptor membranes are stored at −80° C.
Radioligand binding assays (screening and dose-displacement) use 0.1 nM [^3H]-nociceptin (Perkin Elmer, Shelton, Conn.; 87.7 Ci/mmole) with 12 μg membrane protein in a final volume of 500 μl binding buffer (10 mM MgCl2, 1 mM EDTA, 5% DMSO, 50 mM HEPES, pH 7.4). Non-specific binding is determined in the presence of […] unlabeled nociceptin (American Peptide Company). All reactions are performed in 96-deep well polypropylene plates for 1 h at room temperature. […] The data from screening and dose-displacement experiments are analyzed using Microsoft Excel and the curve fitting functions in GraphPad PRISM™, v. 3.0 or higher, respectively, or an in-house function for one-site competition curve-fitting.

κ opioid receptor [7] = biological target: T2, κ opioid receptor; test: κ-opioid receptor [35S]GTPγS functional assay, U-2 OS cells; assay type: biochemical; set-up: expressed in transfected cells; host or cells: U-2 OS (in-house membranes); conditions: U-2 OS cells; for EC50: bound in μM, read-out: GTPγS κ EC50; for Emax: relative to U69,593, read-out: GTPγS κ Emax
Experimental: Membranes from recombinant HEK-293 cells, CHO or U-2 OS cells expressing the recombinant human κ opioid receptor (κ) were prepared by lysing cells in ice cold hypotonic buffer (2.5 mM MgCl2, 50 mM HEPES, pH 7.4) (10 mL/10 cm dish) followed by homogenization with a tissue grinder/Teflon pestle. […] Membranes were collected by centrifugation at 30,000×g for 15 min at 4° C. and pellets were resuspended in hypotonic buffer to a final concentration of 1-3 mg/mL. Protein concentrations were determined using the BioRad protein assay reagent with bovine serum albumen as standard. Aliquots of κ receptor membranes were stored at −80° C.

[8] = HEK-293 or CHO cells, read-out: Ki Opioid Receptor μ
[9] = HEK-293 or CHO cells, read-out: GTPγS κ EC50
[10] = HEK-293 or CHO cells, bound in μM, read-out: GTPγS κ EC50
[11] = U-2 OS cells, read-out: GTPγS μ EC50

T1 sequence (P35372 whole entry, species assumed): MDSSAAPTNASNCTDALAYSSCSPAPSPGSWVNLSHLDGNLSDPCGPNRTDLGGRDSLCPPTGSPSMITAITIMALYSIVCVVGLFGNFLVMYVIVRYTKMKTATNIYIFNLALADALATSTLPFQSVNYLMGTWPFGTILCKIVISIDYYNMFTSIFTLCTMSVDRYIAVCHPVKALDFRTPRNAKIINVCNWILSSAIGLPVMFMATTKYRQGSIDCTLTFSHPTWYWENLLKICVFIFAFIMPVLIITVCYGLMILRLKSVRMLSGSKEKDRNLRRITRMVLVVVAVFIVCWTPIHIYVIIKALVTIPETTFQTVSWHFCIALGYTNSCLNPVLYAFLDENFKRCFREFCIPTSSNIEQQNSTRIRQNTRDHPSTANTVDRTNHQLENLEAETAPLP

| Structure (SMILES) | Ki (μ-opioid receptor [1]) | Emax (κ opioid receptor [3]; HEK-293 or CHO cells) | Ki (κ opioid receptor [2]) | EC50 (μ-opioid receptor [4]) | Emax (μ-opioid receptor [4]) | Emax (μ-opioid receptor [5]; U-2 OS cells) | EC50 (μ-opioid receptor [5]; [11]) | further results |
| --- | --- | --- | --- | --- | --- | --- | --- | --- |
| COc1ccc2c(c1)[C@@]1(C)CCN(C)C(C2)[C@@H]1OCC(N)=O [Compound 3, 2-(((6R,11R)-8-methoxy-3,6-dimethyl-1,2,3,4,5,6-hexahydro-2,6-methanobenzo[d]azocin-11-yl)oxy)acetamide] | > 20000 nM |  |  |  |  |  |  | Ki (κ opioid receptor [2]; bound in μM): > 20 µM |
| CN(C(=O)/C=C/c1ccoc1)[C@H]1C2Cc3ccc(O)cc3[C@@]1(C)CCN2CC1CC1 [Compound 83, (E)-N-((6R,11R)-3-(cyclopropylmethyl)-8-hydroxy-6-methyl-1,2,3,4,5,6-hexahydro-2,6-methanobenzo[d]azocin-11-yl)-3-(furan-3-yl)-N-methylacrylamide] |  | 77.7 ± 1.76% | 0.00015 ± 2e-05 µM | 10.6 ± 1.18 nM | 92.7 ± 5.21% |  |  | Ki (μ-opioid receptor [1]; [8]): 1.78 ± 0.38 nM; EC50 (κ opioid receptor [3]; [9]): 0.00267 ± 0.00084 µM |
| COc1ccc2c(c1)[C@@]1(C)CCN(CC3CC3)C(C2)C1N(C)C(=O)/C=C/c1ccoc1 (stereo in doubt) [Compound 57, (E)-N-((2R,6R,11S)-3-(cyclopropylmethyl)-8-methoxy-6-methyl-1,2,3,4,5,6-hexahydro-2,6-methanobenzo[d]azocin-11-yl)-3-(furan-3-yl)-N-methylacrylamide] |  | 85.7 ± 3.93% | 0.00461 ± 0.00143 µM | 315 ± 47.9 nM | 112 ± 7.22% |  |  | Ki (μ-opioid receptor [1]; [8]): 236 ± 70.2 nM; EC50 (κ opioid receptor [3]; [9]): 0.351 ± 0.115 µM |
| CN(C(=O)Nc1ccc(C#N)cc1)[C@H]1C2Cc3ccc(O)cc3[C@@]1(C)CCN2Cc1cccc(F)c1F [Compound 89, 3-(4-cyanophenyl)-1-((6R,11R)-3-(2,3-difluorobenzyl)-8-hydroxy-6-methyl-1,2,3,4,5,6-hexahydro-2,6-methanobenzo[d]azocin-11-yl)-1-methylurea] |  |  | 0.0092 ± 0.0009 µM | > 20000 nM |  | 1.17 ± 1.01% |  | EC50 (κ opioid receptor [3]; [10]): > 20 µM; EC50 (μ-opioid receptor [5]; U-2 OS cells, bound in μM, read-out: GTPγS μ EC50): > 20 µM |
| CN1CC[C@]2(C)c3cc(O)ccc3C[C@@H]1[C@@H]2N(C)C(=O)c1ccccc1 [Compound 39, N-((2R,6R,11R)-8-hydroxy-3,6-dimethyl-1,2,3,4,5,6-hexahydro-2,6-methanobenzo[d]azocin-11-yl)-N-methylbenzamide] |  | -1% | 0.082 ± 0.0104 µM | 321 ± 22.2 nM | 89.8 ± 5.39% | 101 ± 3.76% | 0.0183 ± 0.00122 µM | EC50 (κ opioid receptor [3]; [10]): > 20 µM |
| CN1CC[C@]2(C)c3cc(O)ccc3CC1[C@@H]2N1Cc2ccccc2NC1=O [Compound 91] |  | 34.7 ± 5.93% | 0.174 ± 0.0257 µM | 409 ± 19.5 nM | 89.7 ± 5.9% | 71.3 ± 3.53% | 0.378 ± 0.0619 µM | EC50 (κ opioid receptor [3]; [9]): 2.81 ± 0.129 µM |
| CN1CC[C@]2(C)c3cc(O)ccc3C[C@H]1[C@H]2NCCc1ccc(S(N)(=O)=O)cc1 [Compound 93, 4-(2-(((2S,6R,11S)-8-hydroxy-3,6-dimethyl-1,2,3,4,5,6-hexahydro-2,6-methanobenzo[d]azocin-11-yl)amino)ethyl)benzenesulfonamide] |  |  | 5.35 ± 0.541 µM | 3140 ± 790 nM | 92 ± 4.3% | 80.7 ± 4.48% | 4.56 ± 0.743 µM | Ki (μ-opioid receptor [1]; [8]): 3700 ± 91.4 nM; Ki [6]: > 20 µM; EC50 (κ opioid receptor [7]): > 20 µM; Emax (κ opioid receptor [7]): 2% |
| CN(C(=O)/C=C/c1ccoc1)[C@@H]1[C@H]2Cc3ccc(O)cc3[C@@]1(C)CCN2CC1CC1 [Compound 77, (E)-N-((2R,6R,11S)-3-(cyclopropylmethyl)-8-hydroxy-6-methyl-1,2,3,4,5,6-hexahydro-2,6-methanobenzo[d]azocin-11-yl)-3-(furan-3-yl)-N-methylacrylamide] |  | -1% | 0.0043 ± 0.00091 µM | 144 ± 11 nM | 56.5 ± 2.02% | 77.7 ± 0.88% |  | EC50 (κ opioid receptor [3]): > 20 µM; EC50 (μ-opioid receptor [5]; GTPγS μ EC50, U-2 OS cells): 0.029 ± 0.00086 µM |
| CN1CC[C@]2(C)c3cc(O)ccc3C[C@@H]1[C@H]2Nc1ccc(CCS(N)(=O)=O)cc1 [Compound 50, 2-(4-(((2R,6R,11S)-8-hydroxy-3,6-dimethyl-1,2,3,4,5,6-hexahydro-2,6-methanobenzo[d]azocin-11-yl)amino)phenyl)ethanesulfonamide] |  |  | 0.0583 ± 0.0101 µM | 189 ± 13.7 nM | 93.8 ± 2.17% | 86.5 ± 4.14% | 0.042 ± 0.0109 µM | EC50 (κ opioid receptor [3]; [10]): > 20 µM; EC50 (κ opioid receptor [7]): > 20 µM; Emax (κ opioid receptor [7]): 9.78 ± 2.97% |
| COc1ccc2c(c1)C1(C)CCN(C)C(C2)C1=NOCC(=O)O (centres unmarked) [Compound 1, 2-(((8-methoxy-3,6-dimethyl-1,2,3,4,5,6-hexahydro-2,6-methanobenzo[d]azocin-11-ylidene)amino)oxy)acetic Acid] | > 20000 nM |  | 12.1 µM |  |  |  |  |  |
| COc1ccc2c(c1)C1(C)CCN(C)C(C2)C1=NO (centres unmarked) [Compound 2, 8-methoxy-3,6-dimethyl-1,2,3,4,5,6-hexahydro-2,6-methanobenzo[d]azocin-11-one Oxime] | > 20000 nM |  | 2.58 ± 0.122 µM |  |  |  |  |  |
| CCN(CC)CCON=C1C2Cc3ccc(OC)cc3C1(C)CCN2C (centres unmarked) [Compound 5, 8-methoxy-3,6-dimethyl-1,2,3,4,5,6-hexahydro-2,6-methanobenzo[d]azocin-11-one O-(2-(diethylamino)ethyl)oxime] | > 20000 nM |  | 10.7 µM |  |  |  |  |  |
| COc1ccc2c(c1)[C@@]1(C)CCN(C)C(C2)[C@H]1OCC(N)=O [Compound 4, 2-(((6R,11S)-8-methoxy-3,6-dimethyl-1,2,3,4,5,6-hexahydro-2,6-methanobenzo[d]azocin-11-yl)oxy)acetamide] | > 20000 nM |  |  |  |  |  |  | Ki (κ opioid receptor [2]; bound in μM): > 20 µM |
| CCC=C1C2Cc3ccc(OC)cc3C1(C)CCN2C (centres unmarked) [Compound 6, 8-methoxy-3,6-dimethyl-11-propylidene-1,2,3,4,5,6-hexahydro-2,6-methanobenzo[d]azocine] | > 20000 nM |  | 3.16 ± 1.24 µM |  |  |  |  |  |
| CN1CC[C@@]2(C)c3cc(O)ccc3C[C@@H]1[C@@H]2N(C)CC1CCN(C(=O)OC(C)(C)C)CC1 [Compound 31, tert-butyl 4-((((2R,6S,11R)-8-hydroxy-3,6-dimethyl-1,2,3,4,5,6-hexahydro-2,6-methanobenzo[d]azocin-11-yl)(methyl)amino)methyl)piperidine-1-carboxylate] |  | 1% | 0.00034 ± 9e-05 µM | 12.3 ± 0.95 nM | 61 ± 3% | 94.3 ± 3.18% | 0.00041 ± 0.00038 µM | EC50 (κ opioid receptor [3]; [10]): > 20 µM |
| COc1ccc2c(c1)[C@@]1(C)CCN(C)C(C2)C1N1CCCC(C(=O)O)C1 (stereo partly drawn) [Compound 74, 1-((6R)-8-methoxy-3,6-dimethyl-1,2,3,4,5,6-hexahydro-2,6-methanobenzo[d]azocin-11-yl)piperidine-3-carboxylic acid] | 230 ± 43.8 nM | 53 ± 2.31% | 0.0241 ± 0.00593 µM | 639 ± 147 nM | 31.7 ± 0.67% |  |  | EC50 (κ opioid receptor [3]): 0.637 ± 0.0651 µM |
